Data from publication PMC8878047 (Pharmaceutics, 2022).

Test system: KM mice
Format: in vivo
Conditions: high-dose group, dead mice, HE staining
Description: After the acute toxicity test, the dead mice after oral administration and the surviving mice at the end of the observation period were promptly dissected and pathologically examined. […] We dissected the important organs (heart, liver, spleen, lung, kidney, large intestine, and small intestine) of dead mice and normal mice in the high-dose group of each drug solution. Then, the main organs were fixed in 10% buffered formalin and embedded in paraffin for 1–4 h. They were histopathologically examined under the optical microscope after slicing and staining with hematoxylin-eosin (HE) staining. No fixed parameters were compared between the treatment and control groups.

Compound: CCN1CCN(c2cc3c(cc2F)c(=O)c(C(=O)[O-])cn3C2CC2)CC1.[Na+] [EFX-Na, reference compound]
- histopathological finding in kidney tissue: more and larger glomeruli in kidney tissue
